Several values for one entry are separate records, joined by “and”; a condition that tells them apart may be missing. Identical values can stand only once.
Key:
Mtb H37Rv WT [1] = conditions: cited from earlier work
PptT [2] = target: T1, PptT (Mycobacterium tuberculosis, UniProt O33336); assay: FP-based PptT enzyme assay; assay type: biochemical
T1 sequence (O33336 1-227): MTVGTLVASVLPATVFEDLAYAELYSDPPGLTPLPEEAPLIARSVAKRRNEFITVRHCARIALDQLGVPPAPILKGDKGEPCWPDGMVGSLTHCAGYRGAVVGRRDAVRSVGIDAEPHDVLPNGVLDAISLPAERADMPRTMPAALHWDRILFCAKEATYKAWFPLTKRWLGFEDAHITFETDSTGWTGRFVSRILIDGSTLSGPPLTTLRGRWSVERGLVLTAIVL

PptT [3] = target: T1, PptT; assay: Differential scanning fluorimetry thermal shift assay; assay type: binding; conditions: for ΔTm of CoA-preincubated PptT: 50 μM Ralt-1, Hepes buffer without arginine/glutamate
Mtb DHFR = target: T2, Mtb DHFR (Mycobacterium tuberculosis, UniProt P9WNX1); assay: Dihydrofolate reductase; assay type: biochemical
T2 sequence (P9WNX1 1-161): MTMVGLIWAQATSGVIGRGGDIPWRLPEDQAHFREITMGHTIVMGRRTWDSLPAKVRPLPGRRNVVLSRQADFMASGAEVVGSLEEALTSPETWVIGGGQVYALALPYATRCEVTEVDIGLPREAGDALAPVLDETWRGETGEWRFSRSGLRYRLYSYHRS

PptT [4] = target: T1, PptT; assay: Kinetic mechanism assay for N-ACP PKS13 substrate; assay type: biochemical
Mtb H37Rv = conditions: 10 μM, 24 hours, Mtb on filters
Mtb pptH KO = assay: Minimal inhibitory concentration determination, pptH KO; assay type: cell-based; conditions: Mycobacterium tuberculosis, read-out: MIC90 ΔPptH
CoA-saturated PptT = target: T3, CoA-saturated PptT (Mycobacterium tuberculosis, UniProt O33336); assay: biochemical; assay type: binding
T3 sequence (O33336 1-227): T1 sequence (O33336 1-227)

[5] = test system: Mtb pptT cKD -ATc (PptT depleted); assay type: cell-based, Mycobacterium tuberculosis; conditions: PptT depleted by withholding ATc
PptT [6] = target: T1, PptT; assay: Preincubation and rapid dilution assay; assay type: biochemical; conditions: 10 μM each preincubated, 500-fold dilution
Mtb pptT cKD +ATc = assay: microbe, parasite or virus in culture; assay type: cell-based; conditions: Mycobacterium tuberculosis, read-out: MIC90 PptT KD +ATc
Mtb H37Rv WT [7] = assay type: cell-based, Mycobacterium tuberculosis
PptT [8] = target: T1, PptT; assay: BpsA assay of PptT activity with native CoA; assay type: biochemical

SMILES: CN(Cc1cnc2nc(N)nc(N)c2n1)c1ccc(C(=O)N[C@@H](CCC(=O)O)C(=O)O)cc1 [Methotrexate]
- MIC90 against Mtb (Mtb H37Rv WT [1]): > 100000 µM

SMILES: Cc1nc2ccc(CN(C)c3ccc(C(=O)N[C@@H](CCC(=O)O)C(=O)O)s3)cc2c(=O)[nH]1 [Ralt-1, Raltitrexed]
- maximum inhibition (PptT [2]; FP assay, BDP-CoA, normalized): ≥ 100%
- IC50 (PptT [2]; IC50 PptT, FP assay at 100 nM PptT enzyme concentration): 70 nM and 65 nM
- IC50 (PptT [2]; IC50 PptT, FP assay, fresh/resupplied powder or purity-checked sample): ~50 nM
- IC50 (PptT [2]; IC50 against rPptT): 730 nM
- Hill slope (h) (PptT [2]; concentration-response curve, FP assay): 1.5
- ΔTm of CoA-preincubated PptT (PptT [3]; 1 mM CoA): 4 °C
- ΔTm of CoA-preincubated PptT (PptT [3]; 2 mM CoA): 3 °C
- gain in melting temperature (Tm) of PptT (PptT [3]; 1:10 molar ratio of protein to Ralt-1): 15 °C
- IC50 (Mtb DHFR): 8500 nM
- mode of inhibition with respect to the ACP substrate (PptT [4]): noncompetitive mode of inhibition
- % Uptake from media (Mtb H37Rv): 1.2 ± 0.1%
- MIC (Mtb pptH KO): > 100 µM
- Kd (CoA-saturated PptT): 290 ± 29 nM
- MIC90 PptT KD -ATc [5]: >100000 nM
- reversibility of binding to PptT (PptT [6]): readily reversible
- MIC (Mtb pptT cKD +ATc): > 100 µM
- MIC90 H37Rv (Mtb H37Rv WT [7]): >100 µM
- whole-cell activity / target profile against Mtb (in words) (Mtb H37Rv WT [7]): no activity
- IC50 (PptT [8]): 250 nM

Reference: publication PMC10942122 (Science Advances, 2024)
